{"source": "patent US20180244699A1", "about": "“1-HYDROXY-3H-2,1-BENZOXABOROLE DERIVATIVES AND THEIR USE AS MICROBIOCIDES” (Syngenta Participations AG, priority 2015, published 2018)", "key": {"Pyrenophora teres": {"test_system": "Pyrenophora teres", "assay": "Pyrenophora teres / barley / leaf disc preventative (net blotch)", "assay_type": "in vivo", "details": "200 ppm, barley leaf segments, inoculated 2 days after application, compared to untreated control", "protocol": "14. Pyrenophora teres/Barley/Leaf Disc Preventative (Net Blotch) Barley leaf segments cv. Hasso are placed on agar in a multiwell plate (24-well format) and sprayed with the formulated test compound diluted in water. The leaf segments are inoculated with a spore suspension of the fungus 2 days after application. The inoculated leaf segments are incubated at 20° C. and 65% rh under a light regime of 12 h light/12 h darkness in a climate cabinet and the activity of a compound is assessed as disease control compared to untreated when an appropriate level of disease damage appears in untreated check leaf segments (5-7 days after application)."}, "[1]": {"test_system": "Mycosphaerella graminicola (Septoria tritici)", "assay": "Mycosphaerella graminicola (Septoria tritici) / liquid culture (Septoria blotch)", "assay_type": "cell-based", "details": "Zymoseptoria tritici, growth inhibition photometrically 4-5 days after application, compared to untreated control"}, "[2]": {"test_system": "Monographella nivalis (Microdochium nivale)", "assay": "Monographella nivalis (Microdochium nivale) / liquid culture (foot rot cereals)", "assay_type": "cell-based", "details": "growth inhibition photometrically 4-5 days after application, compared to untreated control", "method_in_brief": "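Conidia from cryogenic storage were mixed into potato dextrose broth and added to wells holding test compound in DMSO. Incubation was at 24° C, with growth inhibition measured photometrically 4-5 days after application.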"}, "Pythium ultimum": {"test_system": "Pythium ultimum", "assay": "Pythium ultimum / liquid culture (seedling damping off)", "assay_type": "cell-based", "details": "Globisporangium ultimum, growth inhibition photometrically 2-3 days after application, compared to untreated control", "method_in_brief": "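Fungal mycelia fragments and oospores from fresh liquid culture mixed into potato dextrose broth and added to DMSO solutions of test compound. Incubated at 24° C.; growth inhibition read photometrically 2-3 days after application.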"}, "[3]": {"test_system": "Glomerella lagenarium (Colletotrichum lagenarium)", "assay": "Glomerella lagenarium (Colletotrichum lagenarium) / liquid culture (anthracnose)", "assay_type": "cell-based", "details": "Colletotrichum orbiculare, growth inhibition photometrically 3-4 days after application, compared to untreated control", "method_in_brief": "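Conidia from cryogenic storage suspended in potato dextrose broth and added to test compound in DMSO. Incubation at 24° C; growth inhibition read photometrically 3-4 days after application.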"}}, "data": [{"smiles": "CCc1ccc(NC(=O)c2ccc3c(c2OC)B(O)OC3)cc1", "note": "[Compound 29, N-(4-ethylphenyl)-1-hydroxy-7-methoxy-3H-2,1-benzoxaborole-6-carboxamide]", "values": [{"measurement": "control of Pyrenophora teres", "setting": "Pyrenophora teres", "value": "at least 80%"}, {"measurement": "inhibition of growth at 20 ppm", "setting": "[1]", "value": "≥ 80", "unit": "%"}, {"measurement": "inhibition of growth at 20 ppm", "setting": "[2]", "value": "≥ 80", "unit": "%"}, {"measurement": "inhibition of growth at 20 ppm", "setting": "Pythium ultimum", "value": "≥ 80", "unit": "%"}, {"measurement": "inhibition of growth at 20 ppm", "setting": "[3]", "value": "≥ 80", "unit": "%"}]}]}
